Experimental data published in BigSolDB 2.1.

Structure (SMILES): Cc1cnc(NC(=O)C2=C(O)c3ccccc3S(=O)(=O)N2C)s1
- solubility (mole fraction) (in ethanol, 288.15 K): 2.2e-05
- solubility (mole fraction) (in ethanol, 293.15 K): 2.55e-05
- solubility (mole fraction) (in ethanol, 298.15 K): 3.2e-05
- solubility (mole fraction) (in ethanol, 303.15 K): 3.95e-05
- solubility (mole fraction) (in ethanol, 308.15 K): 5.3e-05
- solubility (mole fraction) (in ethylene glycol, 288.15 K): 2.53e-05
- solubility (mole fraction) (in ethylene glycol, 293.15 K): 2.59e-05
- solubility (mole fraction) (in ethylene glycol, 298.15 K): 3.02e-05
- solubility (mole fraction) (in ethylene glycol, 303.15 K): 2.91e-05
- solubility (mole fraction) (in ethylene glycol, 308.15 K): 3.06e-05
- solubility (mole fraction) (in propylene glycol, 288.15 K): 4.49e-05
- solubility (mole fraction) (in propylene glycol, 293.15 K): 4.52e-05
- solubility (mole fraction) (in propylene glycol, 298.15 K): 4.74e-05
- solubility (mole fraction) (in propylene glycol, 303.15 K): 5.6e-05
- solubility (mole fraction) (in propylene glycol, 308.15 K): 6.61e-05
- solubility (mole fraction) (in water, 288.15 K): 2e-07
- solubility (mole fraction) (in water, 293.15 K): 3e-07
- solubility (mole fraction) (in water, 298.15 K): 4e-07
- solubility (mole fraction) (in water, 303.15 K): 9e-07
- solubility (mole fraction) (in water, 308.15 K): 1.1e-06
